This note sets out measurements from patent publication US20220332799A1, “HERV INHIBITORS FOR USE IN TREATING TAUOPATHIES” (Deutsches Zentrum Für Neurodegenerative Erkrankungen E.V. …, priority 2019, published 2022).

In this experiment the test system is MuERV Env and Gag. Format: cell-based, mouse. Particulars: s2E P1 donors; Aza 200 nM or Dec 100 nM, then 5 days without drug; vs DMSO. As to the method:
To inhibit methyltransferases, s2E P1 donor cells were treated for three days with methyltransferase inhibitors 5-Azacytidine (Aza) 200 nM, Decitabine (Dec) 100 nM or DMSO as solvent control. Subsequently, the cells were cultured in the absence of the drugs for 5 days. Pre-treated donor cells were subsequently cocultured with recipient cells as described above to monitor aggregate induction efficiency in recipient N2a NM-GFP^sol cells. Cell lysates of donor cells were also analyzed for MuERV Env and Gag expression levels by western blot. To increase DNA methylation, the s2E donor clone (P21) was treated with methyl group donors L-methionine (L-M) 80 mM, Betaine (B) 80 mM, Choline chloride (CC) 20 mM or medium control for 6 days. MuERV Env and Gag protein levels were analyzed by western blot. Subsequently, cells were cocultured with recipient cells for 16 h. The percentage of aggregate containing recipient cells was compared to the percentage of aggregate bearing recipients cocultured with solvent-treated donors.
Pre-designed siRNAs against murine XPR1 and mCat-1 genes were used to knock-down genes coding for putative receptors. For transfection, 2-4×10^5 cells/well were seeded on 6 well plates. The next day, 30 nM siRNA or plasmid DNA was transfected using Lipofectamine RNAiMAX or Lipofectamine2000 transfection reagent, respectively, according to the manufacturer's instructions (Thermo Fisher Scientific). After 2 days, transfected cells were harvested for aggregate induction assays and qRT-PCR, western blot analysis.
For Western blot analysis, protein concentrations were measured using the Quick Start™ Bradford Protein assay (Bio-Rad). Proteins were separated on NuPAGE®Novex® 4-12 Bis-Tris Protein Gels (Life Technologies) followed by transfer onto a PVDF membrane (GE Healthcare). Western blot analysis was performed using rat hybridoma anti-MuERV Env mAb83A25; anti-xenotropic MuLV virus antibody ABIN457298 for detecting both Env and Gag (antibodies-online); mouse anti-MuERV Gag ab100970 (Abcam); mouse anti-Alix (1:1000; BD Bioscience); rat anti-HA 3F10 (1:1000; Roche); mouse anti-GAPDH 6C5 (1:5000; Abcam); mouse anti-Hsc/Hsp70 N27F3-4 (1:1000; ENZO); mouse anti-VSV-G A5977 (Sigma); rabbit anti-Tau ab64193 (Abcam); mouse anti-HERV K Env HERM-1811-5 (Amsbio); mouse anti-HERV K Gag HERM-1841-5 (Amsbio). The membrane was incubated with Pierce™ ECL Western Blotting Substrate (Thermo Fisher Scientific) according to the manufacturer's recommendations.

As to `Nc1ncn([C@H]2C[C@H](O)[C@@H](CO)O2)c(=O)n1` [Decitabine, 5-aza-2′-deoxycytidine], the “expression of MuERV proteins” value is given as “increased expression”.
